Assay results as given in US12516179B2, “Chitosan-based nanocomposite as an antimicrobial agent and corrosion inhibitor” (priority 2019, dated 2026).

How the values were obtained:
zebrafish embryos [1] = experiment: Zebrafish embryo acute toxicity assay (CZNCs); assay type: in vivo, zebrafish (Danio rerio), AB strain
Experimental: Fertilized embryos of wild type AB zebrafish strains (Danio rerio) were collected in E3 egg medium in Petri dishes. At 3 hours post-fertilization (hpf), unfertilized and abnormal embryos were discarded. The fertilized embryos were dechorionated with pronase at 24-hpf and retained in 6 well-plates containing E3 egg medium. Next, E3 egg medium was replaced by the different concentrations of drugs to be tested.
We investigated the toxicology of CZNCs nanomaterial with an acute toxicity assay adapted by the Organization of Economic Co-operation and Development (OECD) guideline for testing chemical toxicity (No 203 and 236) and modified it for nanoparticle testing. The purified (acetic acid-free) lyophilized CZNCs nanomaterial was weighted and dissolved in DI water, then sonicated in a water bath for 15 min for several cycles until a complete homogeneous solution is achieved. Next, 24-hpf healthy dechorionated embryos were transferred to 6 well-plate containing the following treatment dissolved in E3 egg medium: (i) four different concentrations (25, 50, 100, 250 μg/mL) of CZNCs (ii) the positive control DEAB ([…]), (iii) the negative control 0.1% DMSO and then incubated at 28.5° C. for an additional 72 h until their age reached 96-hpf. Cumulative survival and mortality were recorded at 3-time point intervals (48, 72, and 96 hpf), In addition, all embryos were observed every day for any teratogenic abnormalities. […] A total of 100 embryos were used for each tested dose condition of the CZNCs, and 20 embryos for DEAB and DMSO concentrations. The toxicity assessment was expressed as a percentage of survived embryos for 96-hpf. Teratogenic score was presented as average standard error of mean. This value was calculated at every stage as the sum of different teratogenic phenotypes, expressed in percentage respect to the total number of possible teratogenic phenotypes at that precise stage of observation.

zebrafish embryos [2] = experiment: Zebrafish embryo acute toxicity assay (CNLS-NCs); assay type: in vivo, zebrafish (AB strain); settings: exposure 24-72 hpf
Experimental: We used wild type zebrafish embryos (AB strain) in our study. For detailed information about our zebrafish aquatic system (Aquaneering, USA), original source of the zebrafish, zebrafish culture, mating protocol, and animal protocol guidelines, the reader is advised to visit the following articles. For the acute toxicity assay, at 24-hours post fertilization (hpf), embryos were dechorionated as described in. Briefly, E3 media were removed and 0.5 mg/mL of pronase enzyme (Sigma, Germany) in 10 mL PTU-E3 media was added and incubated for 10 min at 28° C. until the chorion become soft. Then, embryos were washed 2-3 times with PTU-E3 medium until the embryos were released and free from the chorion. […] The mortality rate and teratogenicity (morphological deformities) were observed and recorded at 2-time point intervals (48 and 72-hpf) using a standard stereo microscope (Zeiss, Germany). The teratogenic effects of both nanoparticles were determined based on the normal embryo morphology of the negative control (FIG. 9A), and abnormal morphology [defects in body size, heart and yolk edema, scoliosis, pigmentation, and movement problem (FIG. 9B)] of the positive control. Teratogenicity was scored at 72-hpf by calculating the number of dead and deformed embryos over the total number of […] embryos used in each concentration (50 embryos). […]

[3] = tested on: SRB induced corrosion on carbon steel (SS400); experiment: EIS of carbon steel (SS400) coupons incubated in SRB media with CLNC / CS@LS; settings: SRB with 5% GA
Experimental: The carbon steel coupons were incubated in liquid medium containing enriched SRB biomass (250 mg·VSS/L) along with modified Postage's C medium in simulated inject seawater. […] 200 ml plastic bottles were used for the incubation experiments. The coupons were incubated without CLNC to evaluate the SRB induced corrosion on carbon steel. In next stage, the optimum conditions of the nanocomposite have been verified by using different ratio nanocomposites as well as optimum concentration has been tested by using different concentrations of optimum ratio CLNC. Then the optimum concentration of CLNC were added in the incubating mixture to evaluate the corrosion inhibition imparted by the nanocomposite at different time intervals. The abiotic conditions were made by incubating coupons in same manner without any SRB and nanocomposite to differentiate the SRB induced corrosion from chemical corrosion. All incubation experiments were performed in anaerobic chamber to maintain the anaerobic condition throughout the experiments. […]
EIS analysis was carried out using Gamry potentiostat (Gamry 600+, FA, USA) using the SRB treated carbon steel coupon as a working electrode, calomel and graphite disk electrodes as reference and counter electrodes, respectively. […] The EIS measurements were recorded at an open circuit potential with a 10 mV sinusoidal signal over the frequency range of 0.01-10^5 Hz Before the EIS measurements, steady state conditions were achieved by keeping the whole setup at open circuit potential (OCP) for 30 min. Potentiodynamic polarization curves were measured by scanning the potential from −250 mV to +250 mV vs OCP at a sweep rate of 0.167 mV/s. The experimental results were analyzed by Gamry Echem Analyst software version 7.05.
The mixed SRB culture was enriched from sludge biomass obtained from an offshore oil filed in Qatar. […] The optimum concentration of CS@LS was evaluated in the range of 0-1000 μg·mL^−1 CS@LS and EIS analysis was performed after 10 days of incubation. […]

| Structure (SMILES) | LOEC (zebrafish embryos [1]; 96-hpf, =>20% mortality) [µM] | cumulative mortality (zebrafish embryos [1]; DEAB 1.0 μM, 96-hpf) [%] | cumulative mortality (zebrafish embryos [1]; DEAB at NOEC (0.1), 96-hpf) [%] | LC50 (zebrafish embryos [1]; sigmoidal curve, 95% confidence limit) [nM] | LC50 (zebrafish embryos [2]) [nM] | bacterial growth [3] | Rct ([3]; 15 days) | Rf ([3]; 15 days) |
| --- | --- | --- | --- | --- | --- | --- | --- | --- |
| CCN(CC)c1ccc(C=O)cc1 [DEAB, Diethylaminobenzaldehyde] | 1.0 | 60 | 10 | 940 | 2500 |  |  |  |
| O=CCCCC=O [GA, glutaraldehyde] |  |  |  |  |  | complete bacterial growth can be inhibited | 158.8 Ω·cm^2 | 136.4 Ω·cm^2 |
